Biological target: T1, PIP4K2C (Homo sapiens, UniProt Q8TBX8)
T1 sequence (Q8TBX8 1-421): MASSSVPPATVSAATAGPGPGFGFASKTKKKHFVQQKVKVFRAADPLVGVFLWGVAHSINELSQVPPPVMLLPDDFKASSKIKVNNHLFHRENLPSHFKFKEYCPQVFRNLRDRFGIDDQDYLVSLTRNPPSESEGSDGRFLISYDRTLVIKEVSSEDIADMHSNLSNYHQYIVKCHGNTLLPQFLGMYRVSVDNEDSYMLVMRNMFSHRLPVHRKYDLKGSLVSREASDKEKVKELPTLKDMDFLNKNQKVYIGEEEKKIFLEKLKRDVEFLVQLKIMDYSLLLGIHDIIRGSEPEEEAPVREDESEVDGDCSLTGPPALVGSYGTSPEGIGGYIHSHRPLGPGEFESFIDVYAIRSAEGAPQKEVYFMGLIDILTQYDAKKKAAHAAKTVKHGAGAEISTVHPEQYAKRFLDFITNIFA
Experiment: HiBiT PIP4K2C degradation assay in MOLT-4 cells (endogenous PIP4K2C C-terminally tagged with HiBiT)
Type: cell-based
Parameters: untagged in primary human PBMCs and monocyte-derived dendritic cells
Conditions: 6 hours of incubation time, rather than 24 hours; MOLT-4, top concentration 10 micromolar; read-out: HiBIT-degradation MOLT4 PIP4k2C DC50 (6 hours, marked *)
In short: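 MOLT-4 cells with endogenous PIP4K2C C-terminally HiBiT-tagged by CRISPR were treated with a 10-point, 3-fold dilution series from 10 micromolar, in duplicate, for 24 h or 6 h at 37 C. Remaining tagged protein read by HiBiT lytic luminescence; DC50 from Hill-equation fit.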

DC50, < 500 nM:
O=C1CCC(Nc2ccc(N3CCC(N4CCC(NC(=O)[C@H]5CC[C@H](Nc6ncc(F)c(-c7cccc(C8CC8)c7)n6)CC5)CC4)CC3)c(F)c2)C(=O)N1 (stereo partly drawn) [Compound 533, trans-4-((4-(3-cyclopropylphenyl)-5-fluoropyrimidin-2-yl)amino)-N-(1′-(4-((2,6-dioxopiperidin-3-yl)amino)-2-fluorophenyl)-[1,4′-bipiperidin]-4-yl)cyclohexane-1-carboxamide]
O=C1CCC(Nc2ccc(C3CCN([C@H]4CC[C@H](NC(=O)[C@H]5CC[C@H](Nc6ncc(F)c(-c7cccc(-n8ccccc8=O)n7)n6)CC5)CC4)CC3)c(F)c2)C(=O)N1 (stereo partly drawn) [Compound 520, trans-N-(trans-4-(4-(4-((2,6-dioxopiperidin-3-yl)amino)-2-fluorophenyl)piperidin-1-yl)cyclohexyl)-4-((5-fluoro-4-(2-oxo-2H-[1,2′-bipyridin]-6′-yl)pyrimidin-2-yl)amino)cyclohexane-1-carboxamide]
Cn1nc(C2CCC(=O)NC2=O)c2ccc(N3CCN([C@H]4CC[C@H](C(=O)N[C@H]5CC[C@H](Nc6ncc(F)c(-c7cccc(-c8ccc[nH]c8=O)c7)n6)CC5)CC4)CC3)cc21 (stereo partly drawn) [Compound 389, trans-(1r,4R)-4-(4-(3-(2,6-dioxopiperidin-3-yl)-1-methyl-1H-indazol-6-yl)piperazin-1-yl)-N-((1r,4R)-4-((5-fluoro-4-(3-(2-oxo-1,2-dihydropyridin-3-yl)phenyl)pyrimidin-2-yl)amino)cyclohexyl)cyclohexane-1-carboxamide]
O=C1CCC(Nc2ccc(C3CCN(CC4CCN(C(=O)[C@H]5CC[C@H](Nc6ncc(F)c(-c7cccc(C8CC8)c7)n6)CC5)CC4)CC3)c(F)c2)C(=O)N1 (stereo partly drawn) [Compound 554, trans-3-((4-(1-((1-(4-((4-(3-cyclopropylphenyl)-5-fluoropyrimidin-2-yl)amino)cyclohexane-1-carbonyl)piperidin-4-yl)methyl)piperidin-4-yl)-3-fluorophenyl)amino)piperidine-2,6-dione]
O=C1CCC(Nc2ccc(N3CCC(N4CCC(C(=O)N[C@H]5CC[C@H](Nc6ncc(F)c(-c7cccc(-c8ccc[nH]c8=O)c7)n6)CC5)CC4)CC3)c(F)c2)C(=O)N1 (stereo partly drawn) [Compound 429, trans-1′-(4-((2,6-dioxopiperidin-3-yl)amino)-2-fluorophenyl)-N-(4-((5-fluoro-4-(3-(2-oxo-1,2-dihydropyridin-3-yl)phenyl)pyrimidin-2-yl)amino)cyclohexyl)-[1,4′-bipiperidine]-4-carboxamide]
O=C1CC[C@@H](Nc2ccc(N3CCC(N4CCC(NC(=O)[C@H]5CC[C@H](Nc6ncc(F)c(-c7cccc(-n8ccccc8=O)c7)n6)CC5)CC4)CC3)c(F)c2)C(=O)N1 [Compound 440, trans-N-(1′-(4-(((R)-2,6-dioxopiperidin-3-yl)amino)-2-fluorophenyl)-[1,4′-bipiperidin]-4-yl)-4-((5-fluoro-4-(3-(2-oxopyridin-1(2H)-yl)phenyl)pyrimidin-2-yl)amino)cyclohexane-1-carboxamide]

Same assay, conditions: 24 hours incubation, MOLT-4, top concentration 10 micromolar; read-out: HiBIT-degradation MOLT4 PIP4k2C 24 hours DC50

DC50, < 500 nM:
O=C1CCC(n2c(=O)oc3cc(N4CCC(CN5CCC(O)(CC(=O)N6CCC(Nc7ncc(F)c(-c8cccc(-n9ccccc9=O)c8)n7)CC6)CC5)CC4)ccc32)C(=O)N1 (centres unmarked) [Compound 380, 3-(6-(4-((4-(2-(4-((5-fluoro-4-(3-(2-oxopyridin-1(2H)-yl)phenyl)pyrimidin-2-yl)amino)piperidin-1-yl)-2-oxoethyl)-4-hydroxypiperidin-1-yl)methyl)piperidin-1-yl)-2-oxobenzo[d]oxazol-3 (2H)-yl)piperidine-2,6-dione]
Cn1c(=O)n(C2CCC(=O)NC2=O)c2ccc(C3CCN(CC4CCN(CC(=O)N[C@H]5CC[C@H](Nc6ncc(Cl)c(-c7cccc(-c8ccc(F)cc8)c7)n6)CC5)CC4)CC3)cc21 (stereo partly drawn) [Compound 276, trans-N-(4-((5-chloro-4-(4′-fluoro-[1,1′-biphenyl]-3-yl)pyrimidin-2-yl)amino)cyclohexyl)-2-(4-((4-(1-(2,6-dioxopiperidin-3-yl)-3-methyl-2-oxo-2,3-dihydro-1H-benzo[d]imidazol-5-yl)piperidin-1-yl)methyl)piperidin-1-yl)acetamide]

From patent US20260355196A1, “INHIBITORS AND DEGRADERS OF PIP4K PROTEIN” (Larkspur Biosciences, Inc., priority 2023, published 2026)
